Source: patent US12616674B2, “Anti-fibrotic NEU3 inhibitor compounds and methods of use” (The Texas A&M University System, priority 2019, dated 2026)
“Also recorded” adds a separate entry of the source.

What was measured:
[1] = molecular target: T1, recombinant human sialidase NEU3 (Homo sapiens, UniProt Q9UQ49); experiment: NEU3-catalyzed L-TGF-β1 activation (TGF-β1 release/concentration assay, active TGF-β1 ELISA); type: biochemical; settings: recombinant human NEU3, L-TGF-β1, PBS pH 6.9, 2 hours 37° C.; read-out: IC50, inhibits human NEU3 in the TGF-β1 concentration (release) assay
T1 construct: purchased Origene TP316537
T1 sequence (Q9UQ49 1-428): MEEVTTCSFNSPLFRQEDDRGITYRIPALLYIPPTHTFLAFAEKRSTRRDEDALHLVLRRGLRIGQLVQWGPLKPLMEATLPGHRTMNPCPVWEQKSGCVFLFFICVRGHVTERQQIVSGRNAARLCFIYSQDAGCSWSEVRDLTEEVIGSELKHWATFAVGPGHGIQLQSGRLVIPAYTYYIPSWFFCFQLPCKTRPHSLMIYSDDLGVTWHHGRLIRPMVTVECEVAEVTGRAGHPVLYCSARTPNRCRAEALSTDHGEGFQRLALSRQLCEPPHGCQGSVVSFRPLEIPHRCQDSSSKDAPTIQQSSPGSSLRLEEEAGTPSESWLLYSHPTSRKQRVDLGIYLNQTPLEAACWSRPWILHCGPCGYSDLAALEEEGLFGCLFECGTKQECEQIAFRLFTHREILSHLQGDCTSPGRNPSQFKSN
Description: To determine if NEU3 can cause latent transforming growth factor-β1 (L-TGF-β1) to release active TGF-β1, 200 ng/ml recombinant human L-TGF-β1 (299-LT/CF, R&D Systems) was incubated with varying concentrations of recombinant human NEU3 (TP316537, Origene) in a total volume of 100 μl of PBS pH 6.9 in a 96-well microplate (651261, Greiner Bio-one, Monroe, NC). The microplates were covered with aluminum foil and incubated at 37° C. for 2 hours. Following incubation, the reaction mixtures were assayed using a TGF-β1 ELISA kit (DY240, R&D Systems) following the manufacturer's protocol with the exception that the reaction mixtures were not processed for acid treatment, so as to measure only active TGF-β1 and not total TGF-β1. The absorbance was read with a SynergyMX plate reader (BioTek, Winooski, VT).
To determine the ability of compounds 1-31 to inhibit human recombinant NEU3 in-vitro, compounds were dissolved in 5 ml water to 20 mM in 15 ml tubes (89039-664, VWR, Radnor, PA), with the exception that 4-hydroxypyridine-2-carboxylic acid, nicotinic acid, and 4-aminopicolinic acid were dissolved in 50 μl DMSO to 2 M, and this was then added to 4.95 ml of water to make a 20 mM stock, and O-(tetrahydro-2H-pyran-2yl) hydroxylamine and salicylic acid were dissolved in 50 μl methanol to 2 M, and this was then added to 4.95 ml of water to make a 20 mM stock. All stocks were stored at 4° C. and used within 2 weeks of preparation. A 10-fold dilution series of the compounds starting at 2 mM were made in PBS pH 6.9 in 1.7 ml clear microtubes (22-281, Genesee Scientific). 100 μl of diluted compound was added to the well of a 96 well plate and then 50 μl of 400 ng/ml recombinant human sialidase NEU3 (TP316537, Origene) in PBS pH 6.9 was added to each well (50 μl PBS pH 6.9 for the control), and the plate was incubated for 30 minutes at 37° C. 50 μl of 800 ng/ml L-TGF-β1 (299-LT/CF, R&D Systems) in PBS pH 6.9 was then added to the well. The plate was covered with aluminum foil and incubated for 2 hours at 37° C., and released active TGF-β1 was assayed as described above.

[2] = system: C57BL/6 mice on regular or high fat diet; experiment: High fat diet C57BL/6 mice treated with intraperitoneal DANA; type: in vivo, mouse
Description: 12 week old male C57BL/6 mice (#000664; Jackson Laboratory, Farmington, CT) were fed standard rodent chow (15% kcal fat, Teklad 8604, Envigo, Madison WI) and 12-16 week old male C57BL/6 mice (#380050; Jackson) were fed a high fat diet (60% kcal fat, D12492 formula; Research Diets New Brunswick, NJ). Mice were placed on the specified diets for 6 weeks before the start of treatment. To determine if the sialidase inhibitor DANA (#252926-10MG, Millipore-Sigma, Burlington, MA) decreases high-fat diet induced weight gain, mice were treated every 48 hours with intraperitoneal injections of phosphate-buffered saline (PBS) or DANA at 10 mg/kg in PBS, formulated as 4 mg/ml in PBS. Mice were maintained on their specific diets and received injections every 48 hours for 5 weeks (35 days). Animals were housed with a 12-hour/12-hour light-dark cycle (lights on at 7 AM) with free access to food and water. All injections were performed between 9:00 and 11:00 AM. This protocol was done with specific approval of the Texas A&M University institutional animal care and use committee.
To determine the amount of steatosis (accumulation of fat in the cells of the liver), frozen sections were prepared by placing freshly isolated pieces of liver in Surgipath frozen section compound, freezing on dry ice, and storing at −80° C. 10-12 μm cryosections of liver were placed on glass slides and were stained with oil red O to detect the accumulation of lipids as described in Mehlem, A., et al., Imaging of neutral lipids by oil red O for analyzing the metabolic status in health and disease, Nat. Protoc., 2013. 8(6): p. 1149-54.
As in Example 9, mice were maintained on their specific diets and received injections of buffer or DANA every 48 hours for 5 weeks (35 days). Following euthanasia, liver tissue was removed, fixed, and then sectioned as described above.
This situation leads to elevated levels of glucose in the blood system, and following an increase in blood glucose (such as after a meal or an injection of glucose), the body takes longer than normal to reduce blood glucose levels. To determine if DANA could reduce blood glucose levels, on day 33 of the experiment described in […], mice were fasted for 16 hours starting at 5 PM. On day 34, mice received an IP injection of 1.5 g/kg glucose (Amresco, Solon, OH) formulated as 525 mg/ml in PBS. Blood glucose levels were measured before glucose administration (0 minutes), and at 20, 40, 60, 90, and 120 minutes after the injection using commercial blood glucose test strips (CVS Pharmacy, Woonsocket, RI).
Obesity is associated with increased size (weight) of many organs, including white fat and liver. To determine if the sialidase inhibitor DANA could prevent a high fat diet-induced increase in organ weights, at day 35 of the experiment described in Example 9, following euthanasia, organs including epididymal white adipose and inter-scapular brown adipose tissue, liver, spleen, lungs, and kidneys were weighed.

[3] = system: NEU3 enzymic activity, hepatic steatosis and weight gain in mice; settings: oral administration; cited from earlier work
[4] = HFD mice, DANA vs control HFD, day 35, FIG. 19

Structure (SMILES): CC(=O)N[C@@H]1C(O)C=C(C(=O)O)O[C@H]1[C@H](O)[C@H](O)CO (stereo partly shown) [Compound 1, DANA]
- IC50 [1]: 250 µM
- oil red O staining in the liver (neutral lipid accumulation) ([2]; HFD mice, DANA 10 mg/kg i.p. every 48 hours for 35 days, vs saline, FIG. 14): significant reduction
- F4/80 positive cells in the liver ([2]; HFD mice, DANA i.p. every 48 hours for 35 days, vs saline, FIG. 15): significant reduction
- high fat diet induced weight gain ([2]; HFD mice, DANA i.p. injections vs PBS, after 21 days of treatment, FIG. 16): prevents weight gain; also recorded: significant reduction in weight gain
- total glucose levels (AUC over 120 minutes) ([2]; HFD mice, DANA vs HFD control, FIG. 18): significantly lower
- blood glucose levels after glucose injection ([2]; HFD mice, DANA vs control HFD, at 60 minutes after 1.5 g/kg IP glucose, FIG. 17): significantly lower
- brown fat weight (percent of body weight) [2, 4]: significantly lower
- white fat weight (percent of body weight) [2, 4]: significantly lower
- weight of mice on regular chow ([2]; regular chow mice, DANA vs PBS injections): no effect; also recorded: no significant differences in weight
- organ weights ([2]; regular chow mice, DANA vs PBS, day 35, FIG. 19): no significant differences in any organ weights
- oil red O staining in the liver ([2]; regular diet mice, DANA 10 mg/kg i.p. every 48 hours for 35 days, vs saline): no significant difference
- F4/80 staining in the liver ([2]; regular diet mice, DANA i.p. every 48 hours for 35 days, vs saline): no significant difference
- fasting glucose levels or glucose levels after the glucose injection ([2]; standard chow mice, DANA vs PBS, FIG. 17): no significant differences
- HFD-induced weight gain [3]: attenuated
- NEU3 enzymic activity in the small intestine [3]: inhibited
- hepatic steatosis [3]: attenuated
